The test addresses CDK2/CCNE1 (Homo sapiens, UniProt P24941). Put plainly: CDK2 homogeneous time-resolved fluorescence (HTRF) assay. Type of test: biochemical. The following applies: 3 nM CDK2/CCNE1, 1 mM ATP, 50 nM ULight-eIF4E-binding protein 1 (Thr37/46) peptide, 60 min at 23° C. How it is done:
A CDK homogeneous time-resolved fluorescence (HTRF) assay was used to assess the potency of the compounds described herein.
To an untreated 384-well microtiter plate (ProxiPlate) was added 100 nL 100× test compound in DMSO and 5 μL 2×CDK enzyme in assay buffer (50 mM HEPES, 1 mM EGTA, 10 mM MgCl2, 0.01% Tween 20, 2 mM DTT). The plate was centrifuged at 800 RPM for 1 min then incubated for 20 min at 23° C. 2.5 μL per well of 4×ATP and 2.5 μL 4×ULight™-eIF4E-binding protein 1 (Thr37/46) Peptide) substrate were added to all wells. After addition, the plates were centrifuged at 800 RPM for 1 min. The plates were incubated at 23° C. for 60 min. 5 μL per well 3×EDTA solution were added to each well to stop the reaction. 2.5 μL 7×LANCE Ultra Europium-anti-phospho-eTF4E-binding protein 1 (Thr37/46 antibody) were added to each well and the plate was centrifuged for 1 min at 800 RPM. The plate was incubated for 60 min at 23° C. Fluorescence was read at 340 nm excitation and 665 nm emission on an EnVision 2105 fluorescence reader. The final concentrations of reagents in the activity assay were 3 nM CDK2/CCNE1, 1 mM ATP, 50 nM ULight™-eIF4E-binding protein 1 (Thr37/46) Peptide substrate, 1% DMSO, 10 mM EDTA, and 2 nM LANCE Ultra Europium-anti-phospho-eTF4E-binding protein 1 (Thr37/46).
Dose-response titrations were conducted by using an 11-point, three-fold serial dilution scheme typically starting at 1 μM. Signals were reported as fluorescence units at 665 nm or the ratio of fluorescence units at 665 nm/fluorescence units at 615 nm. Signals are referred to below as “Lance signals”.
Using this assay, the IC50 values of example compounds were determined.
(In general: Time-resolved FRET reads energy transfer from a long-lived donor to a nearby acceptor.)

[1] abbreviates: read-out: CDK2/CCNE IC50 >150 nM.
The mark [2] stands for this setting: column 25-150 nM, read-out: CDK2/CCNE IC50 25-150 nM.
The mark [3] stands for this setting: read-out: CDK2/CCNE IC50 <25 nM.

The source of these data is US20260306496A1, “CDK2 INHIBITOR PYRAZOLOPYRIMIDINE COMPOUNDS” (ALEKSIA THERAPEUTICS, INC., priority 2023, published 2026).

Where a name gives a salt, the structure may show the parent alone. Read-outs that look alike come from different tables or passages of the source.

Regarding `CS(=O)(=O)c1ccc(Nc2ncc3cnn(CC4CCC(N5CCCC5)CC4)c3n2)cc1` (single isomer, unassigned; stereoisomer b) [Compound 59, N-(4-(methylsulfonyl)phenyl)-1-((4-(pyrrolidin-1-yl)cyclohexyl)methyl)-1H-pyrazolo[3,4-d]pyrimidin-6-amine (stereoisomer B)], under setting [1], the IC50 is above 150 nM.

As for `CS(=O)(=O)c1ccc(Nc2ncc3cnn([C@@H]4CC[C@@H](O)C4)c3n2)cc1` [Compound 50, (1R,3R)-3-(6-((4-(methylsulfonyl)phenyl)amino)-1H-pyrazolo[3,4-d]pyrimidin-1-yl)cyclopentan-1-o1], under setting [2], the IC50 is 25 to 150 nM.

On to `CS(=O)(=O)c1ccc(Nc2ncc3cnn(C[C@@H]4CCC(=O)N4)c3n2)cc1` [Compound 57, (S)-5-((6-((4-(methylsulfonyl)phenyl)amino)-1H-pyrazolo[3,4-d]pyrimidin-1-yl)methyl)pyrrolidin-2-one], for which, under setting [1], the IC50 was above 150 nM.

Turning to `CS(=O)(=O)c1ccc(Nc2ncc3cnn(CCc4ccccc4)c3n2)cc1` [Compound 62, N-(4-(methylsulfonyl)phenyl)-1-phenethyl-1H-pyrazolo[3,4-d]pyrimidin-6-amine], the IC50 under setting [1] was above 150 nM.

`CS(=O)(=O)c1ccc(Nc2ncc3cnn([C@@H]4CCC[C@@H](O)C4)c3n2)cc1` [Compound 51, (1R,3R)-3-(6-((4-(methylsulfonyl)phenyl)amino)-1H-pyrazolo[3,4-d]pyrimidin-1-yl)cyclohexan-1-ol]: the IC50 under setting [3] was below 25 nM.

On to `OCc1cc(Nc2ncc3cnn(CC4CCCCC4)c3n2)ccc1O` [Compound 55, 4-((1-(cyclohexylmethyl)-1H-pyrazolo[3,4-d]pyrimidin-6-yl)amino)-2-(hydroxymethyl)phenol], for which, under setting [2], the IC50 fell in the range of 25 to 150 nM.

On to `CS(=O)(=O)c1ccc(Nc2ncc3cnn(C[C@H]4CC[C@H](CCl)CC4)c3n2)cc1` [Compound 48, 1-(((1R,4R)-4-(chloromethyl)cyclohexyl)methyl)-N-(4-(methylsulfonyl)phenyl)-1H-pyrazolo[3,4-d]pyrimidin-6-amine], for which the IC50 under setting [1] was above 150 nM.

Regarding `CS(=O)(=O)c1ccc(Nc2ncc3cnn(CC4CCNCC4)c3n2)cc1` [Compound 7, N-(4-(methylsulfonyl)phenyl)-1-(piperidin-4-ylmethyl)-1H-pyrazolo[3,4-d]pyrimidin-6-amine hydrochloride], the IC50 under setting [1] was above 150 nM.

For the compound `OCc1ccc(Nc2ncc3cnn(CC4CCCCC4)c3n2)cc1` [Compound 24, (4-((1-(cyclohexylmethyl)-1H-pyrazolo[3,4-d]pyrimidin-6-yl)amino)phenyl)methanol], the IC50 under setting [2] fell in the range of 25 to 150 nM.

For the compound `CN(C)[C@H]1CC[C@@H](Cn2ncc3cnc(Nc4ccc(S(C)(=O)=O)cc4)nc32)CC1` [Compound 40, 1-(((1s,4s)-4-(dimethylamino)cyclohexyl)methyl)-N-(4-(methylsulfonyl)phenyl)-1H-pyrazolo[3,4-d]pyrimidin-6-amine formate], under setting [2], the IC50 fell in the range of 25 to 150 nM.

With `CS(=O)(=O)c1ccc(Nc2ncc3cnn(CC4CCOCC4)c3n2)cc1` [Compound 63, N-(4-(methylsulfonyl)phenyl)-1-((tetrahydro-2H-pyran-4-yl)methyl)-1H-pyrazolo[3,4-d]pyrimidin-6-amine], the IC50 under setting [1] was above 150 nM.

Regarding `C=CS(=O)(=O)c1ccc(Nc2ncc3cn[nH]c3n2)cc1` [Compound 9, N-(4-(vinylsulfonyl)phenyl)-1H-pyrazolo[3,4-d]pyrimidin-6-amine], the IC50 under setting [1] is above 150 nM.

As for `C#CC(=O)c1ccc(Nc2ncc3cnn(CC4CCCCC4)c3n2)cc1` [Compound 38, 1-(4-((1-(cyclohexylmethyl)-1H-pyrazolo[3,4-d]pyrimidin-6-yl)amino)phenyl)prop-2-yn-1-one], the IC50 under setting [1] was above 150 nM.

In the case of `CN[C@H]1CC[C@@H](Cn2ncc3cnc(Nc4ccc(S(C)(=O)=O)cc4)nc32)CC1` [Compound 45, 1-(((1s,4s)-4-(methylamino)cyclohexyl)methyl)-N-(4-(methylsulfonyl)phenyl)-1H-pyrazolo[3,4-d]pyrimidin-6-amine], the IC50 under setting [3] was below 25 nM.

For `C=CS(=O)(=O)c1ncc(Nc2ncc3cnn(CC4CCCCC4)c3n2)cc1Cl` [Compound 31, N-(5-chloro-6-(vinylsulfonyl)pyridin-3-yl)-1-(cyclohexylmethyl)-1H-pyrazolo[3,4-d]pyrimidin-6-amine], the IC50 under setting [1] is above 150 nM.

As for `CS(=O)(=O)c1ccc(Nc2ncc3cnn(CC4CCC(C#N)CC4)c3n2)cc1` (single isomer, unassigned) [Compound 28, 4-((6-((4-(methylsulfonyl)phenyl)amino)-1H-pyrazolo[3,4-d]pyrimidin-1-yl)methyl)cyclohexane-1-carbonitrile], the IC50 under setting [2] lay within 25 to 150 nM.

`C=CS(=O)(=O)c1c(F)cc(Nc2ncc3cnn(CC4CCCCC4)c3n2)cc1F` [Compound 37, 1-(cyclohexylmethyl)-N-(3,5-difluoro-4-(vinylsulfonyl)phenyl)-1H-pyrazolo[3,4-d]pyrimidin-6-amine]: under setting [2], the IC50 was 25 to 150 nM.

Turning to `CN1CCN(CCn2ncc3cnc(Nc4ccc(S(C)(=O)=O)cc4)nc32)CC1` [Compound 15, 1-(2-(4-methylpiperazin-1-yl)ethyl)-N-(4-(methylsulfonyl)phenyl)-1H-pyrazolo[3,4-d]pyrimidin-6-amine], under setting [1], the IC50 is above 150 nM.
